Source: patent publication US9943566B2, “NF-κB inhibitor composition for skin health” (Geoffrey Brooks Consultants, LLC, priority 2016, dated 2018)

System: cultured human fibroblasts
Assay: DNA microarray analysis of gene expression in cultured human fibroblasts treated with peptides
Assay type: cell-based
Conditions: for Peptide Fluorescent Intensity: TGFB / Peptide Fluorescent Intensity: TGFBR1 / Peptide Fluorescent Intensity: TGFBR3: TGF Family Molecules
Procedure: Expression levels for a variety of different genes treated with N-M-A-N-A-K (SEQ ID NO: 1) and A-N-V-A-E-N-A (SEQ ID NO: 2) were determined using DNA microarray analysis of cultured human fibroblasts at BioInnovation Laboratories, Inc., Lakewood, Colo.
The microarrays were scanned with an Axon GenePix 4100A Scanner with the scanning resolution set to 10 μm and analyzed with GenePix Pro software. During the initial scan the PMT gains for the scanner were adjusted such that the Cy5/Cy3 image count ratios were between 0.9 and 1.1.
To derive the standard curve for the assay, the relative fluorescent units versus the known RNA concentrations in μg/ml for the standards were plotted and subjected to regression analysis to establish the line that best fit the data points. Mean RFU values for the test materials and untreated samples were used to estimate the amount of RNA present in each sample.
Because the level of gene expression is related to the fluorescence intensity of the probed gene marker on the microarray, and since it is possible to have differences in labeling efficiency when making the Cy3 and Cy5 probes, it is essential to normalize the fluorescence measurements between the two respective dyes before examining changes in gene expression. As a result, fluorescence intensities for the microarrays were subjected to global normalization. The total fluorescent signal for both dyes was normalized with a correction factor so that the ratio of total intensities for both dyes was equal to one.
The resulting normalized total fluorescent signals for peptides, N-M-A-N-A-K (SEQ ID NO: 1) and A-N-V-A-E-N-A (SEQ ID NO: 2) with a variety of gene samples are shown in Table 1.

[1] = 10 ppm peptide, Additional Genes
[2] = 10 ppm peptide, Anti-Inflammatory
[3] = 10 ppm peptide, Extracellular Matrix Genes Regulated by TGF Beta
[4] = 10 ppm peptide, Genes that Regulate Wound Healing (regulated by TGF beta)
[5] = 10 ppm peptide, Molecules that Regulate TGF Beta Expression/Activity
[6] = 10 ppm peptide, TGF Beta Signaling Pathway Molecules

Asparagine-Methionine-Alanine-Asparagine-Alanine-Lysine (Asn-Met-Ala-Asn-Ala-Lys) [NMANAK]
number of anti-inflammatory genes upregulated (COX1, COX411, COX7C, COX8A, DEFB4, IL10RB, IL26, IL27, ILF2, ILDR1) (10 ppm peptide): ≥ 10
Peptide Fluorescent Intensity: AQP3 [1]: 3.294
Peptide Fluorescent Intensity: EEF1A1 (cell growth) [1]: 6.301
Peptide Fluorescent Intensity: EEF1A2 (cancer cell growth) [1]: 0.067
Peptide Fluorescent Intensity: EEF1G (aminoacyl transferase - glutathione) [1]: 1.928
Peptide Fluorescent Intensity: LOX [1]: 1.035
Peptide Fluorescent Intensity: OGG1 [1]: 1.176
Peptide Fluorescent Intensity: PLOD [1]: 1.105
Peptide Fluorescent Intensity: PLOD2 [1]: 1.085
Peptide Fluorescent Intensity: PLOD3 [1]: 4.092
Peptide Fluorescent Intensity: RAD23A [1]: 0.933
Peptide Fluorescent Intensity: RAD23B [1]: 0.603
Peptide Fluorescent Intensity: SIRT1 [1]: 0.410
Peptide Fluorescent Intensity: SIRT3 [1]: 0.735
Peptide Fluorescent Intensity: SIRT 5 [1]: 1.482
Peptide Fluorescent Intensity: COX1 [2]: 2.645
Peptide Fluorescent Intensity: COX7C [2]: 1.341
Peptide Fluorescent Intensity: COX8A [2]: 1.803
Peptide Fluorescent Intensity: COX411 [2]: 2.067
Peptide Fluorescent Intensity: DEFB4 [2]: 4.798
Peptide Fluorescent Intensity: IL10RB [2]: 1.889
Peptide Fluorescent Intensity: IL26 [2]: 2.036
Peptide Fluorescent Intensity: IL27 [2]: 2.257
Peptide Fluorescent Intensity: ILDR1 (immunoglobin receptor) [2]: 1.546
Peptide Fluorescent Intensity: ILF2 [2]: 4.120
Peptide Fluorescent Intensity: BMP7 [3]: 2.000
Peptide Fluorescent Intensity: COL1A2 [3]: 3.992
Peptide Fluorescent Intensity: COL3A1 [3]: 2.047
Peptide Fluorescent Intensity: COL6A1 [3]: 3.446
Peptide Fluorescent Intensity: COL6A2 [3]: 1.705
Peptide Fluorescent Intensity: COL7 [3]: 1.080
Peptide Fluorescent Intensity: CTGF [3]: 0.429
Peptide Fluorescent Intensity: EGFR [3]: 1.159
Peptide Fluorescent Intensity: ELA2A (elastase) [3]: 3.148
Peptide Fluorescent Intensity: ELN [3]: 0.773
Peptide Fluorescent Intensity: FGF3 (fibroblast growth factor) [3]: 2.000
Peptide Fluorescent Intensity: MMP1 [3]: 1.164
Peptide Fluorescent Intensity: MMP2 [3]: 0.785
Peptide Fluorescent Intensity: PDGFR alpha subunit [3]: 1.608
Peptide Fluorescent Intensity: TIMP1 [3]: 4.057
Peptide Fluorescent Intensity: Tenascin (TNXB) [3]: 1.752
Peptide Fluorescent Intensity: FGF2 [4]: 0.679
Peptide Fluorescent Intensity: VEGFA [4]: 1.385
Peptide Fluorescent Intensity: Activin A beta subunit (INHBB) [5]: 0.095
Peptide Fluorescent Intensity: BMP1 [5]: 0.837
Peptide Fluorescent Intensity: Follistatin (FST) [5]: 0.665
Peptide Fluorescent Intensity: Inhibin (INHA) [5]: 1.917
Peptide Fluorescent Intensity: LTBP (LTBP1) [5]: 0.268
Peptide Fluorescent Intensity: YY1 [5]: 1.378
Peptide Fluorescent Intensity: CBP (CREBBP) [6]: 0.743
Peptide Fluorescent Intensity: SAR1A [6]: 1.632
Peptide Fluorescent Intensity: SP1 [6]: 0.932
Peptide Fluorescent Intensity: Smad1 [6]: 0.918
Peptide Fluorescent Intensity: Smad2 [6]: 0.857
Peptide Fluorescent Intensity: Smad3 [6]: 0.882
Peptide Fluorescent Intensity: Smad4 [6]: 0.454
Peptide Fluorescent Intensity: Smad6 [6]: 1.354
Peptide Fluorescent Intensity: Smad7 [6]: 1.160
Peptide Fluorescent Intensity: p38MAPK (MAPK14) [6]: 1.057
Peptide Fluorescent Intensity: TGFB (10 ppm peptide): 1.224
Peptide Fluorescent Intensity: TGFBR1 (10 ppm peptide): 0.373
Peptide Fluorescent Intensity: TGFBR3 (10 ppm peptide): 1.229
effect on AQP3 (aquaporin3) and EEf1G (glutathione) genes (10 ppm peptide, in words): upregulated
effect on genes expressing extra-cellular matrix components, including collagen production genes COL1A2, COL3A1, COL6A1 and COL6A2 (10 ppm peptide, in words): upregulation
effect on genes that control TGF-β expression (YY1, INHA) (10 ppm peptide, in words): upregulating

ANVAENA (TGF-beta mimic)
Peptide Fluorescent Intensity: LOX [1]: 0.974
Peptide Fluorescent Intensity: OGG1 [1]: 1.364
Peptide Fluorescent Intensity: PLOD [1]: 1.112
Peptide Fluorescent Intensity: PLOD2 [1]: 0.445
Peptide Fluorescent Intensity: PLOD3 [1]: 3.805
Peptide Fluorescent Intensity: RAD23A [1]: 0.078
Peptide Fluorescent Intensity: RAD23B [1]: 1.218
Peptide Fluorescent Intensity: SIRT1 [1]: 0.228
Peptide Fluorescent Intensity: SIRT3 [1]: 0.010
Peptide Fluorescent Intensity: TERT [1]: 0.198
Peptide Fluorescent Intensity: COL1A1 [3]: 2.198
Peptide Fluorescent Intensity: COL1A2 [3]: 3.669
Peptide Fluorescent Intensity: COL3A1 [3]: 2.987
Peptide Fluorescent Intensity: COL4A1 [3]: 0.910
Peptide Fluorescent Intensity: COL6A1 [3]: 6.282
Peptide Fluorescent Intensity: COL6A2 [3]: 2.902
Peptide Fluorescent Intensity: COL7 [3]: 0.435
Peptide Fluorescent Intensity: CTGF [3]: 0.076
Peptide Fluorescent Intensity: EGFR [3]: 1.133
Peptide Fluorescent Intensity: Fibronectin [3]: 1.407
Peptide Fluorescent Intensity: IL-6 [3]: 1.135
Peptide Fluorescent Intensity: MMP1 [3]: 1.991
Peptide Fluorescent Intensity: MMP2 [3]: 0.034
Peptide Fluorescent Intensity: PDGFR alpha subunit [3]: 1.330
Peptide Fluorescent Intensity: TIMP1 [3]: 4.567
Peptide Fluorescent Intensity: Tenascin (TNXB) [3]: 1.353
Peptide Fluorescent Intensity: βIG-H3 (TGFBI) [3]: 2.069
Peptide Fluorescent Intensity: FGF2 [4]: 0.912
Peptide Fluorescent Intensity: GM-CSF (CSF2) [4]: 0.014
Peptide Fluorescent Intensity: VEGFA [4]: 0.798
Peptide Fluorescent Intensity: Activin A beta subunit (INHBB) [5]: 0.261
Peptide Fluorescent Intensity: BMP1 [5]: 0.497
Peptide Fluorescent Intensity: Follistatin (FST) [5]: 0.594
Peptide Fluorescent Intensity: Inhibin (INHA) [5]: 0.264
Peptide Fluorescent Intensity: LTBP (LTBP1) [5]: 0.652
Peptide Fluorescent Intensity: MMP2 [5]: 0.034
Peptide Fluorescent Intensity: YY1 [5]: 0.713
Peptide Fluorescent Intensity: CBP (CREBBP) [6]: 0.375
Peptide Fluorescent Intensity: SAR1A [6]: 1.905
Peptide Fluorescent Intensity: SP1 [6]: 0.590
Peptide Fluorescent Intensity: Smad1 [6]: 1.325
Peptide Fluorescent Intensity: Smad2 [6]: 0.824
Peptide Fluorescent Intensity: Smad3 [6]: 1.202
Peptide Fluorescent Intensity: Smad4 [6]: 0.374
Peptide Fluorescent Intensity: Smad6 [6]: 0.136
Peptide Fluorescent Intensity: Smad7 [6]: 0.357
Peptide Fluorescent Intensity: p38MAPK (MAPK14) [6]: 0.594
Peptide Fluorescent Intensity: p300 (EP300) [6]: 0.961
Peptide Fluorescent Intensity: TGFB (10 ppm peptide): 0.113
Peptide Fluorescent Intensity: TGFBR1 (10 ppm peptide): 0.128
Peptide Fluorescent Intensity: TGFBR3 (10 ppm peptide): 0.098
impact on anti-inflammatory genes (peptide alone, in words): does not impact anti-inflammatory genes significantly
